The test system of the assay is S. aureus 6. As to the kind of experiment: In vitro antimicrobial activity (two-fold agar-plate dilution method). Type of assay: cell-based. The conditions noted are these: Staphylococcus aureus, heart infusion agar (HI-agar), 10^6 viable cells per ml, 37° C., 20 hours, read-out: MIC (minimal inhibitory concentration). The procedure: In vitro Antimicrobial Activity was determined by the two-fold agar-plate dilution method as described below.
One loopful of an overnight culture of a test strain in Trypticase-soy broth (10^6 viable cells per ml) was streaked on heart infusion agar (HI-agar) containing graded concentrations of the test compound, and the minimal inhibitory concentration (MIC) was expressed in terms of μg/ml after incubation at 37° C. for 20 hours.

Molecules are shown by their SMILES.

As for `C[C@@H](O)[C@H]1C(=O)N2C(C(=O)O)=C(C3CN=CNC3)C[C@H]12` (stereo partly drawn) [Example 1, [5R,6S)-6-[(R)-1-hydroxyethyl]-3-[3,4,5,6-tetrahydropyrimidin-5-yl]-7-oxo-1-azabicyclo[3.2.0]hept-2-ene-2-carboxylic acid], the MIC was not above 0.025 µg/mL.

These data come from patent US5286721A, “1-azabicyclo[3.2.0]hept-2-ene-2-carboxylic acid compounds” (Fujisawa Pharmaceutical Co., Ltd., priority 1990, dated 1994).
